In BigSolDB 2.1:

NC(=O)C[C@H](NC(=O)OCc1ccccc1)C(=O)O
solubility (mole fraction)
Conditions | 283.15 K | 288.15 K | 293.15 K | 298.15 K | 303.15 K | 308.15 K | 313.15 K | 318.15 K | 323.15 K
in 1,4-dioxane | – | 0.00212 | 0.00241 | 0.00271 | 0.00317 | 0.00358 | 0.00419 | 0.0049 | 0.0057
in 2-butanone | 0.000329 | 0.000433 | 0.000544 | 0.000652 | 0.000745 | 0.00086 | 0.001 | 0.00112 | 0.00128
in acetone | 0.000747 | 0.000777 | 0.000832 | 0.000971 | 0.00112 | 0.00136 | 0.00161 | 0.00194 | 0.00262
in acetonitrile | 7.48e-05 | 0.000149 | 0.000221 | 0.000305 | 0.000395 | 0.000498 | 0.000599 | 0.00069 | 0.000775
in ethanol | 0.000263 | 0.000463 | 0.000753 | 0.00114 | 0.00161 | 0.00213 | 0.00265 | 0.00311 | 0.00347
in isobutanol | 4.91e-05 | 6.83e-05 | 9.5e-05 | 0.000157 | 0.000269 | 0.000403 | 0.000581 | 0.000831 | 0.00107
in isopropanol | 8.58e-05 | 0.000238 | 0.000431 | 0.000625 | 0.000834 | 0.00105 | 0.00127 | 0.00153 | 0.00177
in methanol | 0.00174 | 0.00188 | 0.00233 | 0.00274 | 0.00344 | 0.00413 | 0.00524 | 0.00647 | 0.00801
in n-butanol | 0.00023 | 0.000293 | 0.000361 | 0.000476 | 0.000644 | 0.000846 | 0.0011 | 0.00135 | 0.00171
in n-pentanol | 0.000182 | 0.000221 | 0.00027 | 0.000325 | 0.000415 | 0.000535 | 0.000652 | 0.000829 | 0.00104
in n-propanol | 0.000285 | 0.000339 | 0.000439 | 0.000576 | 0.000737 | 0.000887 | 0.00116 | 0.00142 | 0.00175
in water | 2.14e-05 | 2.75e-05 | 4.02e-05 | 5.55e-05 | 7.33e-05 | 9.44e-05 | 0.000121 | 0.000152 | 0.000198
